Experimental data reported in ChEMBL document CHEMBL3124886, “Potent Hepatitis C Virus NS5A Inhibitors Containing a Benzidine Core” (ACS Med Chem Lett, 2014).
Each block holds one compound with its values, some of them ahead of it.

How the values were obtained:
[1] = Metabolic stability in rat plasma assessed as compound remaining at 2 uM after 4 hrs; assay type: ADME, cell-free; conditions: read-out: Stability
[2] = molecular target: CYP2C9 (Homo sapiens, UniProt P11712); experiment: Inhibition of CYP2C9 (unknown origin) at 10 uM relative to control; assay type: ADME
[3] = Selectivity index, ratio of cytotoxicity for human Huh7.5.1 cells to EC50 for Hepatitis C virus genotype 1b; assay type: toxicity, cell-based, Huh-7; conditions: read-out: Selectivity Index
[4] = molecular target: CYP2D6 (Homo sapiens, UniProt P10635); experiment: Inhibition of CYP2D6 (unknown origin) at 10 uM relative to control; assay type: ADME
[5] = Selectivity index, ratio of cytotoxicity for human Huh7.5.1 cells to EC50 for Hepatitis C virus type 2a; assay type: toxicity, cell-based, Huh-7; conditions: read-out: Selectivity Index
[6] = system: Hepatitis C virus; experiment: Antiviral activity against Hepatitis C virus type 2a expressing JFH1 assessed as inhibition of infection in human Huh7.5.1 cells after 3 days by luciferase reporter gene assay; assay type: functional, organism-based, Hepacivirus hominis; conditions: genotype 2a, Huh-7, 72 h
[7] = Metabolic stability in rat plasma assessed as compound remaining at 2 uM after 0.5 hrs; assay type: ADME, cell-free; conditions: read-out: Stability
[8] = molecular target: T1, CYP1A2 (Homo sapiens, UniProt P05177); experiment: Inhibition of CYP1A2 (unknown origin) at 10 uM relative to control; assay type: ADME
T1 sequence (P05177 whole entry): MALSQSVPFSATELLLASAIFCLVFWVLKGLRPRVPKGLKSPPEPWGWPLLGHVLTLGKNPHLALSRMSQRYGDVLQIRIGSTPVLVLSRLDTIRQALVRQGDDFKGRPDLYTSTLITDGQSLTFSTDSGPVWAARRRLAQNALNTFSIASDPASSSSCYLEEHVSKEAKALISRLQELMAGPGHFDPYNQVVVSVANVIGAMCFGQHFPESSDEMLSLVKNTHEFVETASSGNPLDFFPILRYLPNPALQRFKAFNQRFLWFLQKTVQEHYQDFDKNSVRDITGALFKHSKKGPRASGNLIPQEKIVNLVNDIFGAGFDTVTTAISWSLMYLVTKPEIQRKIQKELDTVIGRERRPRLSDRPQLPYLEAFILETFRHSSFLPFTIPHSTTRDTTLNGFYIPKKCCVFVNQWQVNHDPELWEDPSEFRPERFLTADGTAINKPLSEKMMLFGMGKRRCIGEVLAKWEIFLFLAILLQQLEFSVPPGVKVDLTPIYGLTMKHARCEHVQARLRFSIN

[9] = Metabolic stability in rat plasma assessed as compound remaining at 2 uM after 1 hr; assay type: ADME, cell-free; conditions: read-out: Stability
[10] = molecular target: CYP3A4 (Homo sapiens, UniProt P08684); experiment: Inhibition of CYP3A4 (unknown origin) at 10 uM relative to control; assay type: ADME
[11] = system: Hepatitis C virus; experiment: Antiviral activity against Hepatitis C virus genotype 1b expressed in human Huh7.5.1 cells coexpressing NKR2AN after 3 days by luciferase reporter gene assay; assay type: functional, organism-based, Hepacivirus hominis; conditions: Huh-7, 72 h
[12] = molecular target: Voltage-gated inwardly rectifying potassium channel KCNH2 (Homo sapiens, UniProt Q12809); experiment: Binding affinity to human ERG by fluorescence polarization assay
[13] = Cytotoxicity against human Huh7.5.1 cells; assay type: cell-based; conditions: huh-7

Chain of CYP2D6 (P10635 whole entry): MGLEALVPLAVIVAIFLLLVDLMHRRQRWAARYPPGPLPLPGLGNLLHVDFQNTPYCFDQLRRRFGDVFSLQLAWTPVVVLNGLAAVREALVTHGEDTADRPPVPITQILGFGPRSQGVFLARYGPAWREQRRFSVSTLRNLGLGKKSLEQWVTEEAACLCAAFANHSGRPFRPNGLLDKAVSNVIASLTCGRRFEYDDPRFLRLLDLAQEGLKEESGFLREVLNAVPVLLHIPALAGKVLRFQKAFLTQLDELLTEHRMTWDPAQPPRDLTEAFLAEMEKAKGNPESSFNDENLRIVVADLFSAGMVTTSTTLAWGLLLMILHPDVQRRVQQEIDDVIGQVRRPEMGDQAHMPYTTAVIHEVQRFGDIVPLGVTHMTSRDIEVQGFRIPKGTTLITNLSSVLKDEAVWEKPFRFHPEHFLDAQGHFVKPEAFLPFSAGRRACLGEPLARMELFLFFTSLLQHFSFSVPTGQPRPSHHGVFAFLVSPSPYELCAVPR
Chain of CYP3A4 (P08684 whole entry): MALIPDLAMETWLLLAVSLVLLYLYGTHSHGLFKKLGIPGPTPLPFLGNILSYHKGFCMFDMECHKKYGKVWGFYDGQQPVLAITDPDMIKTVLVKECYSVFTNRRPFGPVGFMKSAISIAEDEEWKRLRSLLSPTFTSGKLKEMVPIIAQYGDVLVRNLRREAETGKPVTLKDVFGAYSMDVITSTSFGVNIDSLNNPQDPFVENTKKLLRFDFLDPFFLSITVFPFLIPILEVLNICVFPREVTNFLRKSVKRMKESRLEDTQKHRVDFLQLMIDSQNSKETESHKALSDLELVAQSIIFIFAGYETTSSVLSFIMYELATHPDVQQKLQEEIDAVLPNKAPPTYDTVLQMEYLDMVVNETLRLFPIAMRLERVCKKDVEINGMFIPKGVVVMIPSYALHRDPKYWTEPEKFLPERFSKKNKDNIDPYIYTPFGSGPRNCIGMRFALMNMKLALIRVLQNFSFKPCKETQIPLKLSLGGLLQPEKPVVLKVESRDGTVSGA
Chain of CYP2C9 (P11712 whole entry): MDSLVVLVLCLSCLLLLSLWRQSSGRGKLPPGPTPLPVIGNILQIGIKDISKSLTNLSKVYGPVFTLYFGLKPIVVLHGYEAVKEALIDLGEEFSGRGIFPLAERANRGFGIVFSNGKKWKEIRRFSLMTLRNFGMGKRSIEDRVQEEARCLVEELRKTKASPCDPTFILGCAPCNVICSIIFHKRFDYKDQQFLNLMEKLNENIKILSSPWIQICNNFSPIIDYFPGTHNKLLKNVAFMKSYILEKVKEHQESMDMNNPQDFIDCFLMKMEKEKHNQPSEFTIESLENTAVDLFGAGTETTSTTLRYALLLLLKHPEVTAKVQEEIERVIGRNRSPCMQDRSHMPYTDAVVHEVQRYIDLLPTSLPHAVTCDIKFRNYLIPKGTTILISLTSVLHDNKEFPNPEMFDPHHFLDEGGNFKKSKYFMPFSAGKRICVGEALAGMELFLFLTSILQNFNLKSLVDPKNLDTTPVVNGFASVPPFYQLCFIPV
Chain of Voltage-gated inwardly rectifying potassium channel KCNH2 (Q12809 whole entry): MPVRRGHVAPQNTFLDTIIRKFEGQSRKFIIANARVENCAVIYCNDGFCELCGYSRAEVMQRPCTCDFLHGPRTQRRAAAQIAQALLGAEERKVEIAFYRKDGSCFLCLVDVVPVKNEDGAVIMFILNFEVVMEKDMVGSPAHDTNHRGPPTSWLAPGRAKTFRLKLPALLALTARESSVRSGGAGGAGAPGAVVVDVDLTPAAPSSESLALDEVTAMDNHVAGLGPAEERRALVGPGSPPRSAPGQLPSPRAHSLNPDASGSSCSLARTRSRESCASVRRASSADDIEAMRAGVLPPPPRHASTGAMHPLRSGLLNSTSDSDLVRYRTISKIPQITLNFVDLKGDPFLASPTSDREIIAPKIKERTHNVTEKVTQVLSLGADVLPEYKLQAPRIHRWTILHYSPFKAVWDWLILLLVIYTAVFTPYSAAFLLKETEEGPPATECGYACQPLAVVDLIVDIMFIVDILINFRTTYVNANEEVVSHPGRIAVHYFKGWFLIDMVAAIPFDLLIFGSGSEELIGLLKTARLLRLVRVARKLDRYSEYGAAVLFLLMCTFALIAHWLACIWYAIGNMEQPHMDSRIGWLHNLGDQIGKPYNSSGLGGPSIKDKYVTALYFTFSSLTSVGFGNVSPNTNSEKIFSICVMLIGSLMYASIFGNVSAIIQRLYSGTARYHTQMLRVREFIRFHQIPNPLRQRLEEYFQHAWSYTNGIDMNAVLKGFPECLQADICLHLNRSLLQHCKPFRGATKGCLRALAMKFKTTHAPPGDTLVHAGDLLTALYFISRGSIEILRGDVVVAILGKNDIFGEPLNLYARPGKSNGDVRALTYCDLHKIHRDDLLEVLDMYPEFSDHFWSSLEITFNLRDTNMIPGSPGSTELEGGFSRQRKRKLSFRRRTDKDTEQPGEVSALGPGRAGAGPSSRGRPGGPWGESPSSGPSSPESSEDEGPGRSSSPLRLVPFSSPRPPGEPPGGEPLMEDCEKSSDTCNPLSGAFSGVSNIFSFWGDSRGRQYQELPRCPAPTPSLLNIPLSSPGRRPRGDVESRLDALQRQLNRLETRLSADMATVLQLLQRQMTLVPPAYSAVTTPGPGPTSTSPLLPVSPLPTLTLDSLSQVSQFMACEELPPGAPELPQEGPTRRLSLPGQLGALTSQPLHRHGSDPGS

SMILES: COC(=O)N[C@@H](C(=O)N1CCC[C@H]1C(=O)Nc1ccc(-c2ccc(NC(=O)[C@@H]3CCCN3C(=O)[C@H](NC(=O)OC)c3ccccc3)cc2)cc1)c1ccccc1
remaining at 4 h, 2 µM [1]: > 99%
inhibition at 10 µM [2]: 0%
selectivity ratio [3]: > 893000
inhibition at 10 µM [4]: 0%
selectivity ratio [5]: > 96000
EC50 [6]: 0.26 nM
remaining at 0.5 h, 2 µM [7]: > 99%
inhibition at 10 µM [8]: 18.1%
remaining at 1 h, 2 µM [9]: > 99%
inhibition at 10 µM [10]: 23.9%
EC50 [11]: 0.028 nM
EC50 [12]: 9800 nM
Activity [13]: > 25 µM

SMILES: O=C(Nc1ccc(-c2ccc(NC(=O)[C@@H]3CCCN3C(=O)[C@H]3CCCO3)cc2)cc1)[C@@H]1CCCN1C(=O)[C@H]1CCCO1
EC50 [6]: 400 nM

SMILES: O=c1cc(-c2ccccc2)oc2c1ccc1ccccc12 [ALPHA-NAPHTHOFLAVONE]
inhibition at 10 µM [8]: 98.6%

SMILES: COC(=O)N[C@H](C(=O)N1CCC[C@H]1C(=O)Nc1ccc(-c2ccc(NC(=O)[C@@H]3CCCN3C(=O)[C@@H](NC(=O)OC)C(C)(C)C)cc2)cc1)C(C)(C)C
EC50 [6]: 24 nM

SMILES: CC(=O)N1CCN(c2ccc(OCC3COC(Cn4ccnc4)(c4ccc(Cl)cc4Cl)O3)cc2)CC1 (racemic) [KETOCONAZOLE]
inhibition at 10 µM [10]: 95.3%

Further lines, with some results ahead:

EC50 [6]: 15 nM
SMILES: COC(=O)N[C@@H](C(=O)N1CCC[C@H]1C(=O)Nc1ccc(-c2ccc(NC(=O)[C@@H]3CCCN3C(=O)[C@H](NC(=O)OC)C(C)C)cc2)cc1)C(C)C

EC50 [6]: 120 nM
SMILES: COC(=O)N[C@H](C(=O)N1CCC[C@H]1C(=O)Nc1ccc(-c2ccc(NC(=O)[C@@H]3CCCN3C(=O)[C@@H](NC(=O)OC)C(C)C)cc2)cc1)C(C)C

inhibition at 10 µM [2]: 75.8%
SMILES: Nc1ccc(S(=O)(=O)Nc2ccnn2-c2ccccc2)cc1 [SULFAPHENAZOLE]

inhibition at 10 µM [4]: 95.1%
SMILES: C=C[C@H]1C[N@@]2CC[C@H]1C[C@@H]2[C@@H](O)c1ccnc2ccc(OC)cc12 [QUINIDINE]

EC50 [6]: > 1000 nM
SMILES: COC(=O)N[C@@H](C)C(=O)N1CCC[C@H]1C(=O)Nc1ccc(-c2ccc(NC(=O)[C@@H]3CCCN3C(=O)[C@H](C)NC(=O)OC)cc2)cc1

EC50 [6]: 2.3 nM
EC50 [11]: 0.43 nM
SMILES: CN(C)[C@@H](C(=O)N1CCC[C@H]1C(=O)Nc1ccc(-c2ccc(NC(=O)[C@@H]3CCCN3C(=O)[C@@H](c3ccccc3)N(C)C)cc2)cc1)c1ccccc1
selectivity ratio [3]: > 58000
selectivity ratio [5]: > 11000
Activity [13]: > 25 µM

EC50 [6]: 2.2 nM
EC50 [11]: 0.27 nM
SMILES: CCN(CC)[C@@H](C(=O)N1CCC[C@H]1C(=O)Nc1ccc(-c2ccc(NC(=O)[C@@H]3CCCN3C(=O)[C@@H](c3ccccc3)N(CC)CC)cc2)cc1)c1ccccc1
selectivity ratio [3]: > 93000
selectivity ratio [5]: > 11000
Activity [13]: > 25 µM
